These results are taken from ChEMBL document CHEMBL1136480, “Successful shape-based virtual screening: the discovery of a potent inhibitor of the type I TGFbeta receptor kinase (TbetaRI)” (Bioorg Med Chem Lett, 2003).

This experiment deals with HepG2. Put plainly: Inhibition of TGF-beta-induced expression of PAI-luciferase reporter in HepG2 cells. It counts as functional, cell-based. The conditions noted are these: Homo sapiens.

Broadly, the IC50 is the concentration that gives 50% inhibition.

The structures appear in SMILES notation.

Turning to `c1ccc(-c2n[nH]cc2-c2ccnc3ccccc23)nc1`, the IC50 is 60 nM.
